Results published in article PMC10555500, “Evaluation of the Antiproliferative Properties of CpRu Complexes Containing N-Methylated Triazaphosphaadamantane Derivatives” (Bioinorganic Chemistry and Applications, 2023).

Tested on: normal human fibroblasts (HDF)
Experiment: MTT cytotoxicity assay, normal human dermal fibroblasts
Assay type: cell-based
Protocol: The MDA-MB-231 and MCF-7 human breast cancer cells were purchased from ATCC. The MDA-MB-231 and MCF-7 cells were grown in Dulbecco's modified Eagles' medium (DMEM high glucose) (Capricorn Scientific) at 37°C in 5% CO2 supplemented with 10% fetal bovine serum (Capricorn Scientific). HDF cells were purchased from Merck and were grown in the fibroblast growth medium. All cells were adherent in monolayers and, upon confluence, were washed with phosphate buffer saline (PBS) and harvested by digestion with trypsin-EDTA 0.05% (v/v). The cells were suspended and transferred into new, sterile, culture flasks for maintenance or seeded in sterile test microplates for different assays. All cells were manipulated under aseptic conditions in a flow chamber.
The cells were adherent in monolayers and, upon confluence, were harvested by digestion with trypsin. The cytotoxicity of the complexes against the tumour cells was assessed using the colorimetric assay MTT […], which evaluates the metabolic activity of viable cells. This assay measures the conversion of yellow tetrazolium into purple formazan by an active mitochondrial dehydrogenase in living cells. For this purpose, the cells (10–20 × 10^3 in 200 μL of the medium) were seeded into 96-well plates and incubated in a 5% CO2 incubator at 37°C. The cells were settled for 24 h followed by the addition of a dilution series of the complexes in a medium (200 μL). The complexes were first solubilized in 100% DMSO, given a 10 mM stock solution, and then in a medium within the concentration range of 0.1–100 µM. […] After 24 h of incubation, the treatment solutions were removed by aspiration, and MTT solution (200 μL, 0.5 mg·mL^−1 in PBS) was added to each well. After 3 h at 37°C/5% CO2, the solution was removed, and the purple formazan crystals formed inside the cells were dissolved in DMSO (200 μL) by thorough shaking. The cellular viability was evaluated by measuring the absorbance at 570 nm by using a microplate spectrophotometer. The IC50 values were obtained by dose-response curves using the GraphPad Prism software (vs. 5).

CN1CN2CN(C)C[P]([Ru+2]([P](c3ccccc3)(c3ccccc3)c3ccccc3)[P](c3ccccc3)(c3ccccc3)c3ccccc3)(C1)C2.O=S(=O)([O-])C(F)(F)F.[Cl][Pd][Cl].c1cc[cH-]c1 [Compound 11, [RuCp(PPh3)2-µ-dmoPTA-1κP-2κ^2N,N′-PdCl2](CF3SO3)]
IC50 (24 h incubation, MTT, normal human fibroblasts): 1590 ± 450 nM | Fold less cytotoxic for fibroblasts (HDF) than for MCF-7 cells (selectivity HDF vs MCF-7): 2-3 fold | Fold less cytotoxic for fibroblasts (HDF) than for MDA-MB-231 cells (selectivity HDF vs MDA-MB-231): 1.5 fold
